# pKd: −log10 of the molar value.
# Target: T1, TaHeR (Thermoplasmatales archaeon SG8-52-1, UniProt Z9O312AX90)
# T1 construct: wild type, N-terminal 6xHis tag, pET21a(+), E. coli C43(DE3), purified in octyl glucoside; symmetric dimer, one protomer in asymmetric unit
# T1 sequence (Z9O312AX90 1-259): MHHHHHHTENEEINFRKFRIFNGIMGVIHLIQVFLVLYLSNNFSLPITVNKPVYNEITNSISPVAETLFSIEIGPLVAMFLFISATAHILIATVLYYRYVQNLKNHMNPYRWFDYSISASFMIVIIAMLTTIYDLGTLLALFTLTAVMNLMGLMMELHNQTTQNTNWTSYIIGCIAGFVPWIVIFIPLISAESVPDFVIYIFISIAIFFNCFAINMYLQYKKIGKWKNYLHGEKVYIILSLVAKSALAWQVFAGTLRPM
# Assay: absorption red-shift titration with NaCl
# Type: binding
# Conditions: pH 5.0, up to 300 mM NaCl; anion site in Schiff base cavity near protonated Glu-108; crystal structure at pH 4.5 also shows a second, extracellular chloride
compound,measurement,value
Cl [chloride],pKd,~1.17

# Source: paper PMC9385722 (Scientific Reports, 2022)
